Results on 7 compounds are retold here after patent US10376598B2, “Targeted therapeutics” (Madrigal Pharmaceuticals, Inc., priority 2013, dated 2019).

Read-outs that look alike come from different tables or passages of the source. A value given as a limit tells only on which side of the number the result lay.

In one series the test system is TNFα secretion. Conditions: LPS/IFNγ-stimulated macrophages; cited from earlier work.
The target of the next series is β isoform of p38 MAPK (Homo sapiens, UniProt Q15759). Particulars: in vitro; cited from earlier work.
Sequence of β isoform of p38 MAPK (Q15759 whole entry, canonical isoform): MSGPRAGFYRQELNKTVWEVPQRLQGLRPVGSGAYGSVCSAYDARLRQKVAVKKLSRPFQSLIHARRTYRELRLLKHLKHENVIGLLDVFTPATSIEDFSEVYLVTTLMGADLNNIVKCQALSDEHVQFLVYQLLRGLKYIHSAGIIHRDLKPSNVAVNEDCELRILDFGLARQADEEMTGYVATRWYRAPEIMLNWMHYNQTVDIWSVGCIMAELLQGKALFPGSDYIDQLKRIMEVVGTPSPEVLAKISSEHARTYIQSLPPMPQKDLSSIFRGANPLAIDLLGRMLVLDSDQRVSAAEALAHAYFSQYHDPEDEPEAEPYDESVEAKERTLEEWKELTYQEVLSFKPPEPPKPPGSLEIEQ
The target in a further series is p38α MAPK (Homo sapiens, UniProt Q16539). Particulars: cited from earlier work.
Sequence of p38α MAPK (Q16539 whole entry): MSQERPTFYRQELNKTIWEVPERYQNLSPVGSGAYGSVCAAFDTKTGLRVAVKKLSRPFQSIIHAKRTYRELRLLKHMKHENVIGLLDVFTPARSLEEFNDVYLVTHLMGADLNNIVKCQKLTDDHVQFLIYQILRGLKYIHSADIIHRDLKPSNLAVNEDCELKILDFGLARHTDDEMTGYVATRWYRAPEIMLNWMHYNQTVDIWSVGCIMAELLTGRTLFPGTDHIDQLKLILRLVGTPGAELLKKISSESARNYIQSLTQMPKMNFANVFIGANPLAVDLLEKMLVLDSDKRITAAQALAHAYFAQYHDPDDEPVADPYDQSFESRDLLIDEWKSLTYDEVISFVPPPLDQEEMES
Series [1] concerns phosphorylation of MK2 (Thr334). Conditions: anisomycin-induced mouse RAW264.7 macrophages; cited from earlier work.
For series [2] the test system is unchanged. Particulars: TNFα-stimulated HeLa cells; cited from earlier work.
Another series concerns phospho-MK2. Particulars: cited from earlier work.
The conditions of series [3]: in vivo; cited from earlier work.
Series [4] has as its system HER2. As to the kind of experiment: in vitro HER2 assays. In kind it is cell-based. The source says: This example illustrates how a HER2 degradation assay may be used as a test to determine and select Hsp90-targeting moieties suitable for use in SDC-TRAPs of the invention, and further illustrates the ability of SDC-TRAPs to target cells preferentially expressing Hsp90. Such a test may further be used to determine the Hsp90 binding ability of SDC-TRAPs of the invention, as well as through competitive binding assays and cell-based Hsp90 client protein degradation assays known in the art.
BT-474 cells are plated in the interior 60 wells of a 96 well black clear bottom plate (20,000 cells/well) in DMEM medium, with DMEM media in the surrounding 36 wells, and incubated at 37° C. with 5% CO2 overnight. On the second day, concentration response curve source plates are produced (10 point, 3-fold dilution of compounds in DMSO) followed by a 1:30 dilution in an intermediate dilution plate containing DMEM. Compound is transferred from the intermediate plate to the cell plate at a dilution of 1:10. The cells are then incubated at 37° C. with 5% CO2 for 24 hours.
Cells are then fixed in 4% phosphate-buffered paraformaldehyde for 30 minutes at room temperature and then permeabilized by washing five times with 0.1% Triton X-100 in PBS for 5 minutes at room temperature on a shaker. […] The raw data is normalized to DRAQS and the HER2 EC50 is calculated using XLfit™. […]

Series [5] can be described thus: Tissue distribution of ganetespib in female CD-1 nu/nu mice bearing RERF human NSCLC xenografts. The series is classed as in vivo. From the text: Tissue Distribution of Ganetespib in Female CD-1 Nu/Nu Mice Bearing RERF Human NSCLC Xenografts
To confirm the distribution of ganetespib in blood, livers, kidneys, brains, hearts, lungs and tumors after IV administration of ganetespib to female CD-1 nu/nu mice bearing RERF human NSCLC xenografts, and to examine metabolic profiles of ganetespib in plasma, red blood cells, and above tissues.
Animals: female CD-1 nu/nu mice bearing RERF human NSCLC xenografts (N=3/group)
Formulation: 10% DMSO, 18% Cremophor RH40, 3.6% dextrose solution (DRD)
Bleeding time points: 5 min, 6, 24 hr
Collected tissues: blood (plasma and red blood cells (RBC)), liver, kidneys, brain, heart, lung, tumor
Protein precipitation: 50 μL of 10 times diluted plasma or RBC+150 μL ACN (10 mM NH4OAc), vortexed and centrifuged at 10000 rpm for 8 min; 150 μL supernatant+150 μL water (10 mM NH4OAc)
Protein precipitation: 100 μL homogenized tissue (1:3 tissue: PBS buffer)+100 μL ACN (10 mM NH4OAc), vortexed and centrifuged at 10000 rpm for 8 min
Column: Agilent Zorbax Eclipse XDB-C18, 4.6×150 mm, 5 μm
Mobile phase: A: water containing 10 mM NH4OAc; B: 95% ACN containing 10 mM NH4OAc
Gradient: 95/5 A/B to 5/95 A/B in 10 min, total run time 15 min
Column: Phenomenex Synergi, 2.1×50 mm, 4 μm
Mobile phase: A: water containing 0.1% HCOOH; B: ACN containing 0.1% HCOOH
Gradient: 60/40 A/B to 5/95 A/B in 0.5 min, total run time 4 min
(In general: Xenograft models place foreign cells or tissue in a host animal.)

Series [6] has as its system HER2. As to the kind of experiment: HER2 degradation in BT-474 cells (Method 1, Western blot). Conditions: 0.5 μM, overnight. The series is classed as cell-based, human. The protocol: […]. The resulting supernatant used as the cytosol fractions is dissolved with sample buffer for SDS-PAGE and run on a SDS-PAGE gel, blotted onto a nitrocellulose membrane by using semi-dry transfer. Non-specific binding to nitrocellulose is blocked with 5% skim milk in TBS with 0.5% Tween at room temperature for 1 hour, then probed with anti-HER2/ErB2 mAb (rabbit IgG, #2242, Cell Signaling) and anti-Tubulin (T9026, Sigma) as housekeeping control protein. HRP-conjugated goat anti-rabbit IgG (H+L) and HRP-conjugated horse anti-mouse IgG (H+L) are used as secondary Ab (#7074, #7076, Cell Signaling) and LumiGLO reagent, 20× Peroxide (#7003, Cell Signaling) is used for visualization. The Hsp90 client protein HER2 is degraded when cells are treated with Hsp90-targeting moieties or SDC-TRAPs of the invention.
(In western blotting, separated proteins are transferred to a membrane and probed.)

In series [7] the test system is SW1990 human pancreas orthotopic tumor. Conditions: in vivo; cited from earlier work.
The test system of the next series is SW1990. Particulars: read-out: IC50 cell proliferation; cited from earlier work.
The target in the next series is T1, JAK2V617F (Homo sapiens, UniProt O60674, V617F).
T1 construct: host or cells: Ba/F3
T1 sequence (O60674 whole entry V617F): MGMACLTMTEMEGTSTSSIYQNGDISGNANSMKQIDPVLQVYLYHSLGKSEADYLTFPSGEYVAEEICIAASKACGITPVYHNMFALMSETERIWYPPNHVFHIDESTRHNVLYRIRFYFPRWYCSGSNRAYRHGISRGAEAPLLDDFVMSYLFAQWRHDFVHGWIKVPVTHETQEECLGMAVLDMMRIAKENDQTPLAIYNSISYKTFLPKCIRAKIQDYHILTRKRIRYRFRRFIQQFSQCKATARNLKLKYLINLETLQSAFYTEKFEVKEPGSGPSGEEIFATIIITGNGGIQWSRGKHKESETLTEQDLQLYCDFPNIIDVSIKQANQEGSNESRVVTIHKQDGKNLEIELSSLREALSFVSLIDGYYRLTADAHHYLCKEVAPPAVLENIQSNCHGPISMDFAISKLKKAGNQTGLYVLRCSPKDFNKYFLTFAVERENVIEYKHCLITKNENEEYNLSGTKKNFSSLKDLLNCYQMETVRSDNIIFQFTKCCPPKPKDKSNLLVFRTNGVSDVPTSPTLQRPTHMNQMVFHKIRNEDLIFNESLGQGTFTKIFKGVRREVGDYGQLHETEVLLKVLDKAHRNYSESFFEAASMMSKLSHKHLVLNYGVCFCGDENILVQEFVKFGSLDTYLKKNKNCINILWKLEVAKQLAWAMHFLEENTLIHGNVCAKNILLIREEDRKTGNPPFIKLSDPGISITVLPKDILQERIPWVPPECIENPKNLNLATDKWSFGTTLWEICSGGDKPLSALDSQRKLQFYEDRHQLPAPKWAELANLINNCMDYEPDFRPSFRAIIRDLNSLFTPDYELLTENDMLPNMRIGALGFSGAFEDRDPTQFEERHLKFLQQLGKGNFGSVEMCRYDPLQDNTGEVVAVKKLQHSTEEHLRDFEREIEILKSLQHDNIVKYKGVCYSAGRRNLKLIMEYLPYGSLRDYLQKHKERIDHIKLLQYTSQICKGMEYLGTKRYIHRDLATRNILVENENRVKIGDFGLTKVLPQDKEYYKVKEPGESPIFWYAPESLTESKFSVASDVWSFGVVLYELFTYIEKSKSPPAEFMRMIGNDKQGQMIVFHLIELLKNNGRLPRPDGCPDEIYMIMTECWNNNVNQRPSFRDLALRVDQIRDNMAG
Conditions: Ba/F3 cells; read-out: IC50 JAK2V617F-driven signaling; cited from earlier work.

Series [8] has as its system Ba/F3-JAK2V617F-GFP ascitic tumor cells. Conditions: cited from earlier work.
In series [9] the test system is Ba/F3-JAK2V617F-GFP tumor burden. Conditions: cited from earlier work.
Series [10] has as its target T2, wild-type JAK2 (Homo sapiens, UniProt O60674). Conditions: read-out: IC50 interleukin-3-stimulated wild-type JAK2-mediated cell proliferation; cited from earlier work.
Series [11] concerns the target T2, wild-type JAK2. Particulars: read-out: IC50 interleukin-3-stimulated wild-type JAK2-mediated signaling; cited from earlier work.
Series [12] has as its system FGF-over VEGF-mediated target signaling. Particulars: in mice; cited from earlier work.

T2 sequence (O60674 whole entry, species assumed): as the sequence (O60674 whole entry V617F) above, with F617V counted along it

With `CC(C)(C)Cn1c(N)nc2ccc(-c3[nH]c(C(C)(C)C)nc3-c3ccc(F)cc3)nc21` [LY2228820, 5-[2-tert-Butyl-4-(4-fluorophenyl)-1H-imidazol-5-yl]-3-(2,2-dimethylpropyl)-3H-imidazo[4,5-b]pyridin-2-amine dimethanesulfonate], the IC50 with TNFα secretion was 6.3 nM; on β isoform of p38 MAPK, 3.2 nM; on p38α MAPK (in vitro, read-out: IC50 α isoform of p38 MAPK) it was 5.3 nM; in [1], 35.3 nM; in series [2], 8.1 nM. Further, the “selectivity for p38α MAPK versus 179 other kinases tested” value at p38α MAPK (including p38δ and γ isoforms) was over 1000 fold. The “TMED70 phospho-MK2 inhibition in tumors” value in the series on phospho-MK2 (mice transplanted with B16-F10 melanomas) was 19.4 mg/kg. In the series on phospho-MK2 (single 10 mg/kg oral dose), the “duration of significant target inhibition” value was 4 to 8 h. In the series on phospho-MK2 (single 10 mg/kg oral dose), the “inhibition of phospho-MK2” value was over 40%.

Turning to `CCN1CCN(Cc2ccc(Nc3ncc(F)c(-c4cc(F)c5nc(C)n(C(C)C)c5c4)n3)nc2)CC1.CS(=O)(=O)O` [LY2835219, 2-Pyrimidinamine, N-[5-[(4-ethyl-1-piperazinyl)methyl]-2-pyridinyl]-5-fluoro-4-[4-fluoro-2-methyl-1-(1-methylethyl)-1H-benzimidazol-6-yl]-, methanesulfonate (1:1)], in series [3], the “percent of dose in brain” value is recorded as 0.5-3.9%.

Compound `CC(C)c1cc(-c2nnc(O)n2-c2ccc3c(ccn3C)c2)c(O)cc1O` [ganetespib] gave an IC50 in the series on HER2 [4] of about 30 nM. Also, the concentration of ganetespib in tumor in series [5] (5 min after 50 mg/kg IV) worked out at 2350 nM. The “mean concentration in plasma relative to RBC” value in series [5] (5 min time point) is “about 10 times”. Besides, the “Concentration of ganetespib in plasma” value in series [5] (24 hr after 50 mg/kg IV) is recorded as “>LLOQ”.

Take `C=CCNC1=C2C[C@@H](C)C[C@H](OC)[C@H](O)[C@@H](C)/C=C(\C)[C@H](OC(N)=O)[C@@H](OC)/C=C\C=C(/C)C(=O)NC(=CC1=O)C2=O` [17-AAG]: in the series on HER2 [6], the “degradation of HER2” value was “partial degradation of HER2”.

With `COc1cccc(OCCCN)c1-c1cc(Nc2cnc(C#N)cn2)n[nH]1` [LY2606368, 5-((5-(2-(3-aminopropoxy)-6-methoxyphenyl)-1H-pyrazol-3-yl)amino)pyrazine-2-carbonitrile], in series [7], the “inhibition of metastasis to lymph node, spleen, and intestine” value is 100%; the “inhibition of primary tumor growth” value was “over 92%”. Further, the IC50 with SW1990 is 1.5 nM.

As for `Cc1cc(Nc2cc(CN3CCOCC3)c3nc(C)c(Cc4ccc(Cl)cc4F)n3n2)n[nH]1` [LY2784544, 3-(4-Chloro-2-fluorobenzyl)-2-methyl-N-(5-methyl-1H-pyrazol-3-yl)-8-(morpholin-4-ylmethyl)imidazo[1,2-b]pyridazin-6-amine], the IC50 on JAK2V617F was 20 nM; at wild-type JAK2 [10], 1310 nM; on wild-type JAK2 [11] it was 1180 nM. In series [8], the “TED50 inhibition of STATS phosphorylation” value was 12.7 mg/kg. Also, in [9] (in vivo), the “effect on erythroid progenitors, reticulocytes or platelets” value is “no effect”. Moreover, in series [9] (twice daily), the “TED50 reduction of Ba/F3-JAK2V617F-GFP tumor burden” value is given as 13.7 mg/kg.

For the compound `C[C@@H](Oc1ccc2[nH]nc(/C=C/c3cnn(CCO)c3)c2c1)c1c(Cl)cncc1Cl` [LY2874455, (R)-(E)-2-(4-(2-(5-(1-(3,5-Dichloropyridin-4-yl)ethoxy)-1H-indazol-3-yl)vinyl)-1H-pyrazol-1-yl) ethanol], the “in vitro and in vivo selectivity on inhibition of FGF-over VEGF-mediated target signaling” value in series [12] is 6- to 9 fold.
